The values that follow come from patent US20250204515A1, “Heparanase Inhibition for Graft Protection” (University of Pittsburgh - Of the Commonwealth System of …, priority 2022, published 2025).

In test [1] the test system is endothelial glycocalyx (eGC). The experiment in a line: Gross inspection and TEM glycocalyx imaging of rat lungs after 1 h warm ischemia. The format is in vivo. As to conditions: for gross visual appearance of excised lungs: heparin 300 IU or NAH 300 μg i.v. before 1 h ischemia; for eGC ultrastructure in lung vasculature (TEM): heparin 300 IU or NAH 300 μg i.v. before 1 h warm ischemia, vs control. The protocol:
Models of lungs with damaged or preserved eGC and rat orthotopic left lung transplantation. Rats were sedated with 4% isoflurane via inhalation for tracheostomy and then placed on a ventilator. They received 5% isoflurane with 100% O2 via inhalation through the ventilator for 15 min to induce a deep state of anesthesia that causes arrest of spontaneous breathing. The rats were disconnected from the ventilator 5 min after intravenous administration of heparin (300 IU), a heparin derivative without anti-coagulant properties (300 μg; N-acetyl heparin (NAH) (Millipore Sigma, Burlington, MA)), or saline (300 μl, control) through the jugular vein. Cardiac activity and blood oxygen saturation were monitored after disconnection from ventilator until cardiac arrest. One hour after induction of ischemia, a median thoracotomy was performed, and blood was flushed from the lungs with cold, low potassium dextran solution (PERFADEX; XVIVO Perfusion AB) through the pulmonary artery. Then, the heart-lung bloc was isolated and stored in cold PERFADEX for 6 h before transplantation.
TEM for glycocalyx imaging. To prepare the tissue for transmission electron microscopy imaging, blood was flushed from rat lungs with PBS via the pulmonary artery after 1 h of warm ischemia, then the lungs were perfused with a solution containing 2% glutaraldehyde, 2% sucrose, 0.1 M sodium cacodylate buffer (pH 7.3, Sigma), and 2% lanthanum nitrate (Sigma). Excised lung tissues were incubated with the same solution for 2 h at 4° C. for fixation. The fixed tissues were immersed in a 2% sucrose, 0.1 M sodium cacodylate buffer (pH 7.3) solution with 2% lanthanum nitrate overnight at 4° C. to stain the glycocalyx, then washed twice with an alkaline solution (0.03 mol/l NaOH) containing 2% sucrose. Following fixation and glycocalyx staining with lanthanum nitrate, the specimens were rinsed in PBS, post-fixed in 1% osmium tetroxide (Electron Microscopy Sciences, Hatfield, PA), rinsed in PBS a second time, dehydrated through a graded series of ethanol and propylene oxide (Electron Microscopy Sciences), and embedded using a Poly/Bed 812 (Luft formulations) Embedding Kit (Polysciences, Warrington, PA). Sections were cut on a Leica-Reichart Ultracut ultra-microtome (Leica Microsystems, Buffalo Grove, IL). Semi-thin (300 nm) sections were stained with 0.5% toluidine blue in 1% sodium borate (toluidine blue O and sodium borate, Fisher Scientific, Pittsburgh, PA) and examined under the light microscope. Ultrathin sections (65 nm) were stained with uranyl acetate and Reynold's lead citrate and examined on a JEOL 1400 transmission electron microscope (JEOL Peabody, MA) with a side-mount AMT 2 k digital camera (Advanced Microscopy Techniques, Danvers, MA).

The subject of a further test is HPSE. Nature of the test: HPSE activity assay in rat lung tissue after 4 hours of EVLP. Conditions: after 4-hours EVLP; heparin 1000-U/hour or SF4 1 μM in perfusate. As for the experimental part:
HPSE activity assay. HPSE activity was measured via a β-glucuronidase activity assay using 4-methylumbelliferyl-β-D-glucuronide (4-MUG) substrate (Millipore-Sigma). Briefly, after 4 hours of EVLP, lung tissues were homogenized in cold PBS. […] Fluorescence (λex 360 nm/λem 460 nm) was continuously measured for 60 minutes using a fluorescence microplate reader (BioTech Synergy HTX, Agilent Technologies, Santa Clara, CA).

A further test relates to rat lungs. Nature of the test: Rat EVLP for 4 hours with HPSE inhibitors in the perfusate: physiology, endothelial barrier, edema. Conditions: heparin 1000-U/hour or SF4 1 μM in perfusate.
The subject of test [2] is glycosaminoglycans (GAGs), syndecan-1. The experiment in a line: Glycocalyx shedding in rat lungs during EVLP (GAGs, syndecan-1 ELISA, immunofluorescence). As to conditions: after 4 hours EVLP; SF4 vs heparin-treated, heparin vs controls. The protocol: Syndecan-1 ELISA: Syndecan-1 concentrations in EVLP perfusate were quantitated using ELISA (Immunotag™ Rat Syndecan-1 ELISA, G-Biosciences, Geno Technology, Inc., St. Louis, MO). ELISA was performed according to the manufacturer's instructions using perfusate samples acquired after 4 hours of EVLP.
Determination of glycosaminoglycans (GAGS): The concentration of GAGs in rat EVLP perfusate at 4 hours was quantitated using 1,9-dimethylmethylene blue (DMMB, Millipore Sigma). The DMMB solution (pH˜3.0) was prepared by dissolving 16 mg/I DMMB in distilled H2O containing 3.04 g/I glycine, 1.6 g/l NaCl and 95 ml 0.1 M acetic acid. Briefly, 1 ml DMMB solution was mixed with 100 μl EVLP perfusate then incubated for 18 h at room temperature. The tubes were then centrifuged at 14,000 rpm for 20 min at 4° C. Supernatants were carefully decanted, 100 μl dissolvent buffer (4 M guanidine hydrochloride, 50 mM sodium acetate, 10% propan-1-ol, pH 6.8) was added to each pellet, and the tubes were incubated at 40° C. and vortexed until GAG-DMMB pellets were completely dissolved. GAG content in each sample was measured spectrophotometrically at 656 nm.
(§1) Tissue staining and histopathological analysis: Formalin-fixed, paraffin-embedded lung tissues collected 2 hours after transplantation were sectioned to 4 μm thickness and stained with hematoxylin and eosin. In parallel, sections of tissue collected after 4 hours of EVLP were stained for immunofluorescence imaging using primary antibodies for syndecan-1 (DL-101) (#sc-12765, Santa Cruz) and caveolin-1 (#3238, Cell Signaling Technology, Danvers, MA) and with Hoechst 33342 dye (Thermo Scientific). Donkey Cy3-conjugated anti-mouse IgG (#AP192C, MilliporeSigma, Burlington, MA) and Cy5-conjugated goat anti-rabbit IgG (#A10523, Thermo Scientific) secondary antibodies were used to detect primary antibodies. Stained slides were scanned with a whole-slide image scanner (Axio Scan.Z1; Carl Zeiss AB, Oberkochen, Germany) and analyzed with digital image processing software (ZEN lite blue edition; Carl Zeiss).

The subject of a further test is heparanase (HPSE). The experiment in a line: In vitro β-D-glucuronidase activity assay (4-MUG substrate).
In the next test the test system is rat lung grafts. Nature of the test: Rat orthotopic left lung transplantation following EVLP. The test is classed as in vivo. Conditions: 2 hours after transplant following 4 hours of EVLP. As for the experimental part:
Rat orthotopic left lung transplantation following EVLP: Orthotopic, single-lung transplantation of the left lung was performed using the 3-cuff method. After EVLP for 4 hours, the lungs were cooled with 4° C. Perfadex on the EVLP system and stored at 4° C. for 1 hour prior to transplantation. The recipient animals were sacrificed 2 hours after reperfusion. When analyzing graft function, the native lung was clamped, 100% 02 was administered for 5 minutes through a ventilator, and the recipient's blood was sampled from the graft pulmonary vein for blood gas analysis.
Graft tissues collected after 4 hours of EVLP and 2 hours after reperfusion were examined for relative mRNA expression levels of interleukin (IL)-6, IL-1, tumor necrosis factor (TNF)-α, and glyceraldehyde-3-phosphate dehydrogenase (GAPDH). Gene expression levels were normalized to GAPDH mRNA levels.
as §1

Entries after “also recorded” stand apart in the source; their conditions may differ.

Experimental for heparanase (HPSE): In vitro β-D-glucuronidase activity assay Heparanase activity was measured via β-Glucuronidase activity assay using 4-methylumbelliferyl-β-D-glucuronide (4-MUG) substrate (Millipore-Sigma). As a source of enzymes, platelet rich plasma (PRP) obtained from rat whole blood or rat lung whole tissue lysate, was used. […] Fluorescence (λex 360 nm/λem 460 nm) was continuously measured for 60 minutes using a fluorescence microplate reader (BioTech Synergy HTX, Agilent Technologies, Santa Clara, CA).

As for N-acetyl heparin [NAH], in test [1], the “gross visual appearance of excised lungs” value is given as “no significant changes in appearance”; the “eGC ultrastructure in lung vasculature (TEM)” value is “intact and adherent to the cell surface”.
Regarding heparin, the “HPSE activity in the lungs” value in the test with HPSE is “partially inhibited; also recorded: not sufficiently nor significantly inhibited”. Moreover, in test [1], the “gross visual appearance of excised lungs” value is listed as “no significant changes in appearance”; the “eGC ultrastructure in lung vasculature (TEM)” value is “preserved; also recorded: intact and adherent to the cell surface”. Also, the “pulmonary vascular resistance (PVR) during EVLP” value in the test with rat lungs (4-hour EVLP) is recorded as “increased”. Besides, the “dynamic lung compliance (Cdyn) during EVLP” value with rat lungs (4-hour EVLP, vs control) is recorded as “neither heparin nor SF4 altered Cdyn”. In the test on rat lungs (after 4-hours EVLP), the “Evans blue dye (EBD) accumulation in lung tissue” value is recorded as “significantly more EBD had accumulated”. The “wet-to-dry (W/D) ratio” value in the test on rat lungs (after 4 hours of EVLP) is “further augmented”. Further, the “syndecan-1 concentration in EVLP perfusate” value in test [2] is listed as “markedly increased; also recorded: significantly higher”. Also, the “inhibition of HPSE in vitro, compared with SF4” value with heparanase (HPSE) (in vitro data) is on record as “not as effective as SF4”. Moreover, the “β-D-glucuronidase activity, dose response” value in the test on heparanase (HPSE) (in vitro, FIG. 8) is reported as “increased in a dose-dependent manner”. For the same substance, in the test with rat lung grafts, the “H&E histology of grafts” value was “swollen alveolar walls, congestion in the blood vessels, and fluid leaks into the alveolar space”; the “post-transplant lung function (P/F ratio)” value was “significantly lower”.
